Patent publication US12410164B2, “Heterocyclic compounds and medical use thereof” (FONDAZIONE TELETHON, priority 2018, dated 2025)
Entries after “also recorded” stand apart in the source; their conditions may differ.

Tests used:
Assay type in all cases: cell-based
G542X-CFTR = experiment: HS-YFP assay in null CFBE41o− cells transfected with G542X-CFTR; conditions: G418 0.5 mg/ml alone, 24 hr
Method: To assess the function and pharmacological sensitivity of G542X-CFTR mutant, inventors used the null version of CFBE41o− cells, i.e. cells with negligible expression of endogenous CFTR and without HS-YFP. Such cells were transiently transfected with the plasmid coding for HS-YFP alone or in combination with: empty plasmid, plasmid coding for wild type CFTR, or plasmid coding for G542X-CFTR. For transfection, cells were seeded in 96-well microplates (30,000 cells/well) in 150 μl of antibiotic-free culture medium. After 24 hours, cells were transfected with the desired plasmids. For each well, 0.2 μg of total plasmid DNA and 0.5 μl of Lipofectamine 2000 (Invitrogen) were first pre-mixed in 50 μl of OPTIMEM (Invitrogen) to generate transfection complexes (60 minutes at room temperature), and then added to the cells. After 24 hour, the complexes were removed by replacement with fresh culture medium. The HS-YFP functional assay was performed after further 24 hours.
To assess the ability of compounds of present invention to improve the rescue of premature stop codon (class I) mutations, we carried out experiments on G542X-CFTR (FIG. 7). Null CFBE41o− cells, devoid of endogenous CFTR expression, were transiently transfected with empty, wild type CFTR or G542X-CFTR plasmids. All cells also received the HS-YFP plasmid to allow functional determination of CFTR-dependent anion transport. […] Where indicated, cells with G542X-CFTR were also treated with G418 (0.5 mg/ml) for 24 hr to induce readthrough of the stop codon mutation, with and without correctors (VX-809 and/or PP028, labeled as VX and PP). […] The activity resulting from wild type CFTR is also shown for comparison.

F508del-CFTR [1] = target: T1, F508del-CFTR (Homo sapiens, UniProt P13569, DEL508-508); experiment: Analysis of F508del-CFTR maturation by immunoblot in CFBE41o− cells; set-up: expressed in transfected cells; host or cells: CFBE41o- cells with expression of F508del-CFTR and HS-YFP (generated as in Sondo et al. 2011); conditions: compound 10 μM plus VX-809 1 μM, 24 hr
Method: CFBE41o− cells were grown to confluence on 60-mm diameter dishes and lysed in RIPA buffer containing a complete protease inhibitor (Roche; cat. n. 11697498001). Cell lysates were centrifuged at 12000 rpm at 4° C. for 10 min. Supernatant protein concentration was calculated using the BCA assay (Euroclone; cat. n. EMP014500) following the manufacturer's instructions. Equal amounts of total protein content (30 μg) were separated onto 10% Criterion TGX Precast gels (Bio-rad laboratories Inc.; cat. n. 4561033), transferred to nitrocellulose membrane with Trans-Blot Turbo system (Bio-rad Laboratories Inc.) and analyzed by Western blotting. Primary antibody for CFTR was anti-CFTR 596 (University of North Carolina at Chapel Hill, and Cystic Fibrosis Foundation Therapeutics, see Cui L, et al. J. Mol Biol 2007, 365, 981-994) at 1:5000 dilution. As secondary antibody, anti-mouse HRP-conjugated Ab 97023 (Abcam) was used at 1:10000 dilution. Results were subsequently visualized by chemiluminescence using the SuperSignal West Femto Substrate (Thermo Scientific) and the Molecular Imager ChemiDoc XRS System.
To analyze the mechanism of action of the compounds of the invention, two types of experiments were carried out. In the first type of experiment, the electrophoretic mobility of F508del-CFTR protein was determined by immunoblot assay. This is a frequently used method to assess the effect of correctors at the protein level. In control conditions, F508del-CFTR migrates predominantly as a single band of 150 kDa called “band B”. This is the immature form of the protein residing in the endoplasmic reticulum. When the protein folding and stability is improved by correctors, an additional band appears at higher molecular weight (170 kDa). This is the so-called band C, which represents the mature form of the CFTR protein that has reached the Golgi compartment and acquired full glycosylation.

F508del-CFTR [2] = target: T1, F508del-CFTR; experiment: HS-YFP kinetic fluorescence (iodide quenching rate) assay in CFBE41o− cells; set-up: expressed in transfected cells; host or cells: CFBE41o- cells with expression of F508del-CFTR and HS-YFP (generated as in Sondo et al. 2011)
In short: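 CFBE41o- cells co-expressing F508del-CFTR and HS-YFP, treated 24 h with compound (0.1-0.2% DMSO), then stimulated with 20 μM forskolin plus 50 μM genistein. Fluorescence was read for 14 s during NaI injection. Background-subtracted, normalized traces were fitted exponentially to give maximum quenching rate (QR).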

[3] = Table 1, compound at 10 μM plus VX-809, (QRTOT − QRVX)/QRVX, HS-YFP assay
[4] = Table 5, compound at 10 μM plus VX-809, (QRTOT-QRVX)/QRVX

T1 sequence (P13569 with tags, fused parts or gaps DEL508-508): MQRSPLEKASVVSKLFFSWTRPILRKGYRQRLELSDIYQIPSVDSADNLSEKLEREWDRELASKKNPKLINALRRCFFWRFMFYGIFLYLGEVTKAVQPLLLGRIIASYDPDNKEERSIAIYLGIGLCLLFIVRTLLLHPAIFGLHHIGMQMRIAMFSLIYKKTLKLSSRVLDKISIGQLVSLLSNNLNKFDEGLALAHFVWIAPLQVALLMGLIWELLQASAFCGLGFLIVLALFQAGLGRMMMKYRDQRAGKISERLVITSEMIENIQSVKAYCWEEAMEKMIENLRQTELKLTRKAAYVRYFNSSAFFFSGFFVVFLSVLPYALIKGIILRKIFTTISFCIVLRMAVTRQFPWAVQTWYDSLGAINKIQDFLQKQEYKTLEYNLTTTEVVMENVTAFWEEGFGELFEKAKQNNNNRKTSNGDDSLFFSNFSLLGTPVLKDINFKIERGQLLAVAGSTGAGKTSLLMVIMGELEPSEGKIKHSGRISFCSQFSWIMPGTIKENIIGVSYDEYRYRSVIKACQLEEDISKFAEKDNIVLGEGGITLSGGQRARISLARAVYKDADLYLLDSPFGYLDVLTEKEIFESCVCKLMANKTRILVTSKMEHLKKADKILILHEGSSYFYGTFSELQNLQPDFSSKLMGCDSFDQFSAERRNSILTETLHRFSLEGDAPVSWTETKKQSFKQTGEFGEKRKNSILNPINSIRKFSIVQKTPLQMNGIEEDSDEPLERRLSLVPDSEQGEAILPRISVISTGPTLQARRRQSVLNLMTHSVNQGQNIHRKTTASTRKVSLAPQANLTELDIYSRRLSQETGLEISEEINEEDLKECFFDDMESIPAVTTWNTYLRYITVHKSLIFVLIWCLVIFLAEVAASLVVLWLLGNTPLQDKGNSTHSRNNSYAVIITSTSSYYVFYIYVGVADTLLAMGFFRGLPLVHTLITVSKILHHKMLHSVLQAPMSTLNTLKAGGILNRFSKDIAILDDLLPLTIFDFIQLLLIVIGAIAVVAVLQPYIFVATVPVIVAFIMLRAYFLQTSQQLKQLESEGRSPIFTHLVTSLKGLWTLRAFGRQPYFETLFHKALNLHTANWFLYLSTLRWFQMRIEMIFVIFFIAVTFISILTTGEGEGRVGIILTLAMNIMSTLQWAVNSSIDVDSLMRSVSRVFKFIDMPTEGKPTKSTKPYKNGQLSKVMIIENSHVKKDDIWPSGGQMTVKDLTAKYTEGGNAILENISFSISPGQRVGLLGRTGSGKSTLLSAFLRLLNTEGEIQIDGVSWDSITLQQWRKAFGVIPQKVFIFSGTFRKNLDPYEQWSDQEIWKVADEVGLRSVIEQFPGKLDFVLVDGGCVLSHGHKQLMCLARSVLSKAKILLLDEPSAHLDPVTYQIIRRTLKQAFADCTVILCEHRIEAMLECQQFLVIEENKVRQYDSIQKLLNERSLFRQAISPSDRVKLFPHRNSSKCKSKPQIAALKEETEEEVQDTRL

SMILES: CN[C@@H]1[C@@H](O)[C@@H](O[C@@H]2[C@@H](O)[C@H](O[C@H]3O[C@H]([C@@H](C)O)[C@@H](O)[C@H](O)[C@H]3N)[C@@H](N)C[C@H]2N)OC[C@]1(C)O [G418, reference compound]
- CFTR activity (QR) in G542X-CFTR cells (G542X-CFTR): modest but significant increase in CFTR activity

SMILES: Cc1ccc(Cn2c(C(=O)OC(C)C)c(Br)c3c2-c2[nH]c(=O)c(S(=O)(=O)c4ccccc4)cc2CC3)cc1 [PP034, Propan-2-yl 7-(benzenesulfonyl)-3-bromo-1-[(4-methylphenyl)methyl]-8-oxo-4,5,8,9-tetrahydro-1H-pyrrolo[3,2-h]quinoline-2-carboxylate]
- band C (mature form) expression versus VX-809 alone (F508del-CFTR [1]): markedly enhances the abundance of the mature form of the protein; also recorded: marked increase in band C expression
- AI (%) additivity index (F508del-CFTR [2]; [3]): 261%
- structure-activity comparison of corrector potency/activity (F508del-CFTR [2]; relative to the analogue): Increased activity

SMILES: Cc1cccc(Cn2c(C(=O)OC(C)C)c(Br)c3c2-c2[nH]c(=O)c(S(=O)(=O)c4ccccc4)cc2CC3)c1 [PP104, Propan-2-yl 7-(benzenesulfonyl)-3-bromo-1-[(3-methylphenyl)methyl]-8-oxo-4,5,8,9-tetrahydro-1H-pyrrolo[3,2-h]quinoline-2-carboxylate]
- AI (%) additivity index (F508del-CFTR [2]; [3]): 374%

SMILES: CC(C)OC(=O)c1ccc2n1CCCc1cnc(N)nc1-2 [QZQ21, Propan-2-yl 2-amino-6,7-dihydro-5H-pyrimido[4,5-c]pyrrolo[1,2-a]azepine-9-carboxylate]
- AI (%) additivity index (F508del-CFTR [2]; [4]): 6%

SMILES: CC(=O)Nc1ncc2c(n1)-c1ccc(C(=O)OC(C)C)n1CCC2 [QZQ26, Propan-2-yl 2-acetamido-6,7-dihydro-5H-pyrimido[4,5-c]pyrrolo[1,2-a]azepine-9-carboxylate]
- AI (%) additivity index (F508del-CFTR [2]; [4]): 2%

SMILES: CCOC(=O)c1c(Br)c2c(n1Cc1ccc(Br)cc1)-c1nc(NS(=O)(=O)c3ccccc3)ncc1CC2 [SVQ16, Ethyl 2-[(benzenesulfonyl)amino]-7-bromo-9-[(4-bromophenyl)methyl]-6,9-dihydro-5H-pyrrolo[3,2-h]quinazoline-8-carboxylate]
- AI additivity index (F508del-CFTR [2]; Table 3, compound at 10 μM plus VX-809, (QRTOT-QRVX)/QRVX): 98%

SMILES: CCOC(=O)c1nn(Cc2ccc(Br)cc2)c2c1CCc1cc(S(=O)(=O)c3ccccc3)c(=O)[nH]c1-2 [PZ5, Ethyl 7-(benzenesulfonyl)-1-[(4-bromophenyl)methyl]-8-oxo-4,5,8,9-tetrahydro-1H-pyrazolo[4,3-h]quinoline-3-carboxylate]
- AI (%) additivity index (F508del-CFTR [2]; Table 6, compound at 10 μM plus VX-809, (QRTOT-QRVX)/QRVX): 64%

SMILES: Cc1cccc(Cn2c(C(=O)NC3CC3)cc3c2-c2[nH]c(=O)c(S(=O)(=O)c4ccccc4)cc2CC3)c1 [PP084, 7-(Benzenesulfonyl)-N-cyclopropyl-1-[(3-methylphenyl)methyl]-8-oxo-4,5,8,9-tetrahydro-1H-pyrrolo[3,2-h]quinoline-2-carboxamide]
- AI (%) additivity index (F508del-CFTR [2]; [3]): 10%
